In general, MIC refers to the smallest concentration in the dilution series that meets the test's criterion for growth inhibition.

Assay [1] deals with Mus musculus. Put plainly: Antifibrotic activity against BLM-induced pulmonary fibrosis in C57BL/6 mouse model assessed as reduction in fibrosis region at 100 mg/kg, po administered once daily starting from day 7 post BLM treatment and measured on day 14 by hematoxylin-eosin and Masson trichrome staining based analysis relative to control. The assay is classed as functional, organism-based. Conditions: time 14.0 day.

The test system of assay [2] is Mus musculus. Put plainly: Antifibrotic activity against BLM-induced pulmonary fibrosis in C57BL/6 mouse model assessed as improvement in pulmonary alveolar structure damage at 100 mg/kg, po administered once daily starting from day 7 post BLM treatment and measured on day 14 by H and E staining based analysis. The assay is classed as functional, organism-based. The conditions noted are these: time 14.0 day.

The test system of another assay is Escherichia coli. Put plainly: Antibacterial activity against Escherichia coli assessed as bacterial growth inhibition incubated for 24 hrs. The format is functional.
A further assay has as its system Staphylococcus aureus. The assay is described as follows: Antibacterial activity against Staphylococcus aureus assessed as bacterial growth inhibition incubated for 24 hrs. The format is functional.
The subject of the next assay is Bacillus subtilis. Put plainly: Antibacterial activity against Bacillus subtilis assessed as bacterial growth inhibition incubated for 24 hrs. The format is functional.
In assay [3] the target is Transforming growth factor beta-1 proprotein/Mothers against decapentaplegic homolog 3 (Mus musculus) (UniProt P04202+Q8BUN5). The assay is described as follows: Inhibition of TGF-beta1/Smad3 signalling in TGF-beta1 treated mouse NIH3T3 cells transfected with (CAGA)12-Lux reporter gene assessed as suppressive ratio at 10 uM incubated for 18 hrs by luciferase based analysis relative to control. The assay is classed as cell-based. On the set-up: scale not given: the % may be the effect or the level left. On the technique in general: In a reporter assay the amount or activity of a reporter protein is the signal.

The structures appear in SMILES notation. ≈ marks a conversion by molar mass, not a printed value. Calls of active or inactive are those of the source.

Sequence of Transforming growth factor beta-1 proprotein/Mothers against decapentaplegic homolog 3 (Mus musculus) (P04202 279-390 limits assumed): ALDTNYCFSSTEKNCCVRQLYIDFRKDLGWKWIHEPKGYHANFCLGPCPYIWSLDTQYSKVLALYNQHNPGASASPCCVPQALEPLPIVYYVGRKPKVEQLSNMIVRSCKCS
Sequence of Transforming growth factor beta-1 proprotein/Mothers against decapentaplegic homolog 3 (Mus musculus) (Q8BUN5 2-425 partner limits assumed): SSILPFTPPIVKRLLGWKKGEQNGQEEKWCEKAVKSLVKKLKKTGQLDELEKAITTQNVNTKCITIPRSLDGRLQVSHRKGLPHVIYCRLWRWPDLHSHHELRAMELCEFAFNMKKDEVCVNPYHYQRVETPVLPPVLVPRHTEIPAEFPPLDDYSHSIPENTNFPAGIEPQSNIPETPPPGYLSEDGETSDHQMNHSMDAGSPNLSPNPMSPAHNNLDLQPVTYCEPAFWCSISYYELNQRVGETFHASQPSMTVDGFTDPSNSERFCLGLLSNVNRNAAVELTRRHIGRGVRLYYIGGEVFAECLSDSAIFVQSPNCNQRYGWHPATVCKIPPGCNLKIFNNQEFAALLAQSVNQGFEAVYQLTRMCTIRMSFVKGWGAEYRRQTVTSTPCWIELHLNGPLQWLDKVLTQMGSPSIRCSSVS

Turning to `Cc1ccc(=O)n(-c2ccccc2)c1`, the result with Mus musculus [1] and in the assay with Mus musculus [2] was Active.

Regarding `C=C[C@]1(C)C[C@@H](OC(=O)CO)[C@]2(C)[C@H](C)CC[C@]3(CCC(=O)[C@H]32)[C@@H](C)[C@@H]1O` [PLEUROMULIN], the MIC with Escherichia coli is 10 µg/mL (≈ 26.4 µM); in the assay with Staphylococcus aureus, 5 µg/mL (≈ 13.2 µM); with Bacillus subtilis, 100 µg/mL (≈ 264 µM).

Turning to `C=C[C@]1(C)C[C@@H](O)[C@]2(C)[C@H](C)CC[C@]3(C/C(=C\c4ccc(C(=O)O)cc4)C(=O)[C@H]32)[C@@H](C)[C@@H]1O`, the MIC with Escherichia coli, in the assay with Staphylococcus aureus and with Bacillus subtilis was more than 1000 µg/mL throughout. For the same compound, the Activity in assay [3] stood at 41.4%.

Regarding `C=C[C@]1(C)C[C@@H](O)[C@]2(C)[C@H](C)CC[C@]3(C/C(=C\C(C)(C)C)C(=O)[C@H]32)[C@@H](C)[C@@H]1O`, in assay [3], the Activity was 6.58%.

For the compound `C=C[C@]1(C)C[C@@H](O)[C@]2(C)[C@H](C)CC[C@]3(C/C(=C\CCCC)C(=O)[C@H]32)[C@@H](C)[C@@H]1O`, in assay [3], the Activity came out at 16.9%.

Consider `C=C[C@]1(C)C[C@@H](O)[C@]2(C)[C@H](C)CC[C@]3(C/C(=C\C4CCCC4)C(=O)[C@H]32)[C@@H](C)[C@@H]1O`, for which the Activity in assay [3] was determined as 30.6%.

As for `C=C[C@]1(C)C[C@@H](O)[C@]2(C)[C@H](C)CC[C@]3(C/C(=C\c4cccnc4)C(=O)[C@H]32)[C@@H](C)[C@@H]1O`, the Activity in assay [3] stood at 0.29%.

Consider `C=C[C@]1(C)C[C@@H](O)[C@]2(C)[C@H](C)CC[C@]3(C/C(=C\c4ccc(C(=O)N5CCOCC5)cc4)C(=O)[C@H]32)[C@@H](C)[C@@H]1O`, for which the Activity in assay [3] was -19.9%.

`C=C[C@]1(C)C[C@@H](O)[C@]2(C)[C@H](C)CC[C@]3(C/C(=C\c4ccc(C(C)(C)C)cc4)C(=O)[C@H]32)[C@@H](C)[C@@H]1O`: in assay [3], the Activity turned out to be 13.3%.

Consider `C=C[C@]1(C)C[C@@H](O)[C@]2(C)[C@H](C)CC[C@]3(C/C(=C\c4ccc(C(=O)N5CCN(C)CC5)cc4)C(=O)[C@H]32)[C@@H](C)[C@@H]1O`, for which the MIC in the assay with Escherichia coli, in the assay with Staphylococcus aureus and with Bacillus subtilis was more than 1000 µg/mL in each case. For the same compound, the Activity in assay [3] was 40.3%.

Regarding `C=C[C@]1(C)C[C@@H](O)[C@]2(C)[C@H](C)CC[C@]3(C/C(=C\c4ccc(C)cc4)C(=O)[C@H]32)[C@@H](C)[C@@H]1O`, the Activity in assay [3] amounted to 32.8%.

Consider `C=C[C@]1(C)C[C@@H](O)[C@]2(C)[C@H](C)CC[C@]3(C/C(=C\c4ccccc4C)C(=O)[C@H]32)[C@@H](C)[C@@H]1O`, for which, in assay [3], the Activity was determined as 38.8%.

Turning to `C=C[C@]1(C)C[C@@H](O)[C@]2(C)[C@H](C)CC[C@]3(C/C(=C\c4cccc(C(=O)NC5CCCCC5)c4)C(=O)[C@H]32)[C@@H](C)[C@@H]1O`, the Activity in assay [3] was -3.36%.

For `C=C[C@]1(C)C[C@@H](O)[C@]2(C)[C@H](C)CC[C@]3(C/C(=C\c4ncccc4F)C(=O)[C@H]32)[C@@H](C)[C@@H]1O`, in assay [3], the Activity turned out to be 13.5%.

Consider `C=C[C@]1(C)C[C@@H](O)[C@]2(C)[C@H](C)CC[C@]3(C/C(=C\c4ccc(C(=O)NC5CCN(C)CC5)cc4)C(=O)[C@H]32)[C@@H](C)[C@@H]1O`, for which the Activity in assay [3] is -9.93%.

These data come from ChEMBL document CHEMBL5108019, “Discovery of a novel Pleuromutilin derivative as anti-IPF lead compound via high-throughput assay” (Eur J Med Chem, 2022).
